# Like-named read-outs stand apart in the source and are kept apart here. Marks after values point to notes of the source that are not given here.
# Columns and labels:
# [1] = tested on: cisplatin-induced emesis; experiment: Intravenous palonosetron vs ondansetron in cisplatin-treated dogs; format: in vivo; details: 0.1 mg/kg intravenous; five-hour period following cisplatin 3.0 mg/kg
# Description: (§1) The antiemetic effects of intravenously and orally administered palonosetron were assessed in male and female dogs (sexes combined). Antineoplastic agents employed in these experiments included cisplatin (3 mg/kg)), dacarbazine (30 mg/kg), mechlorethamine (0.4 mg/kg) and actinomycin D (0.15 mg/kg). […] Mean numbers of episodes were computed and the statistical significance of differences between treatment groups were determined with Dunnett's t test. Solutions of palonosetron and comparator drugs (ondansetron and granisetron) were prepared in distilled water. Vehicle control groups received distilled water. The therapeutic effects of intravenously and orally administered palonosetron were compared to those of ondansetron and vehicle in cisplatin-treated dogs.
# [2] = tested on: cisplatin-induced emesis; experiment: Reversal of cisplatin-induced emesis, intravenous antiemetic one hour after cisplatin; format: in vivo, dogs; details: for Emetic Episodes (mean ± SD): observed five hours
# Description: as §1, with “In a different study, palonosetron and ondansetron were assessed for their relative abilities to reverse cisplatin-induced emesis. In these experiments dogs received intravenous injections” for “The therapeutic effects”, “palonosetron, ondansetron, or vehicle one hour after the intravenous administration” for “intravenously and orally administered palonosetron were compared to those”, “3.0 mg/kg cisplatin. Each animal was observed continuously for five hours following cisplatin administration for the number of emetic episodes.” for “ondansetron and vehicle in cisplatin-treated dogs.”
# [3] = tested on: cisplatin-induced emesis; experiment: Anti-emetic effect, oral antiemetic one hour before cisplatin; format: in vivo, dogs; details: for Emetic Episodes (mean ± SD): observed five hours
# Description: The antiemetic effects of intravenously and orally administered palonosetron were assessed in male and female dogs (sexes combined). Antineoplastic agents employed in these experiments included cisplatin (3 mg/kg)), dacarbazine (30 mg/kg), mechlorethamine (0.4 mg/kg) and actinomycin D (0.15 mg/kg). […] Mean numbers of episodes were computed and the statistical significance of differences between treatment groups were determined with Dunnett's t test. Solutions of palonosetron and comparator drugs (ondansetron and granisetron) were prepared in distilled water. Vehicle control groups received distilled water. The observation of potency differential was further seen during an experiment in which oral dose-response relationships of palonosetron and ondansetron were compared in cisplatin-treated dogs. Palonosetron, ondansetron or vehicle control were administered by the oral route one hour prior to the administration of cisplatin. Each animal was observed continuously for five hours following cisplatin administration for the number of emetic episodes.
# [4] = tested on: cisplatin-induced emesis; experiment: Duration of action in cisplatin-treated dogs; format: in vivo
# Description: Mean numbers of episodes were computed and the statistical significance of differences between treatment groups were determined with Dunnett's t test. Solutions of palonosetron and comparator drugs (ondansetron and granisetron) were prepared in distilled water. Vehicle control groups received distilled water.
# [5] = tested on: cisplatin-induced emesis; experiment: Systemic exposure study: effects on cisplatin-induced emesis; format: in vivo, dogs; details: 30 minutes prior to cisplatin, oral, table title says intravenous
# Description: An experiment was conducted to study the relationship between plasma concentration of palonosetron and protection of dogs against cisplatin-induced emesis. Groups of dogs received oral doses of palonosetron (0, 100, 316, or 1000 μg/kg) or vehicle control 30 minutes prior to the injection of cisplatin.
# [6] = tested on: Dacarbazine-Induced Emesis; experiment: Antagonism of dacarbazine-induced emesis; format: in vivo, dogs; details: for Emetic Episodes (mean ± SD): 2 hours prior to dacarbazine 30.0 mg/kg IV, observed 5 hours
# [7] = tested on: Actinomycin D-Induced Emesis; experiment: Antagonism of actinomycin D-induced emesis; format: in vivo, dogs; details: for Emetic Episodes (mean ± SD): 2 hours prior to actinomycin D 0.15 mg/kg IV, observed 5 hours
# [8] = tested on: Mechlorethamine-Induced Emesis; format: in vivo, dogs; details: for Emetic Episodes (mean ± SD): 2 hours prior to mechlorethamine 0.4 mg/kg IV, observed 5 hours
# [9] = Plasma half-life of palonosetron; format: in vivo; details: human
# [10] = in vivo
# Description: (§2) A randomized, double-blind, multicenter, dose-ranging Phase II trial was performed to identify the dose response relationship among single I.V. doses of palonosetron. Patients receiving highly emetogenic chemotherapy including cyclophosphamide (>1100 mg/m2) and cisplatin (>70 mg/m2), commonly associated with delayed emesis, were assigned to one of five dose groups of a single I.V. administration of palonosetron. Palonosetron was administered alone (without dexamethasone) as a 30 second intravenous injection, 30 minutes prior to chemotherapy administration. The primary endpoint was 24-hour complete responses (no emesis, no rescue) (CR). Secondary endpoints included complete control (no emesis, no rescue, mild nausea) (CC) and 5-day CR.
# (§3) 161 patients (32 women, 129 men) participated.
# [11] = tested on: Highly Emetogenic Chemotherapy-Induced Nausea and Vomiting; experiment: Phase II dose-ranging trial, single I.V. palonosetron, efficacy; details: for % CR(Day 5): 5-day complete response; for % CR(24 hr): complete response (no emesis, no rescue)
# Description: as §2, §3
# [12] = intravenous antiemetic 0.001 mg/kg
# [13] = intravenous antiemetic 0.003 mg/kg
# [14] = intravenous antiemetic 0.01 mg/kg
# [15] = intravenous antiemetic 0.03 mg/kg
# [16] = intravenous or oral route, stated for all three antineoplastic agents
# [17] = palonosetron 0.3-1 mcg/kg single I.V.
# [18] = palonosetron 3 mcg/kg single I.V.
# [19] = palonosetron 10 mcg/kg single I.V.
# [20] = palonosetron 30 mcg/kg single I.V.
# [21] = palonosetron 90 mcg/kg single I.V.
structure (smiles),measurement,setting,value
"Cl.O=C1c2cccc3c2[C@H](CCC3)CN1[C@@H]1CN2CCC1CC2 [Palonosetron, (3aS)-2,3,3a,4,5,6-Hexahydro-2-[(S)-1-Azabicyclo[2.2.2]oct-3-yl]2,3,3a,4,5,6-hexahydro-1-oxo-1Hbenz[de]isoquinoline hydrochloride]",mean number of emetic episodes,[1],2.20
same,Emetic Episodes (mean ± SD),[2]; intravenous dose 0.3 μg/kg one hour after cisplatin 3.0 mg/kg IV,13.16 ± 6.11 ^
same,Emetic Episodes (mean ± SD),[2]; intravenous dose 1.0 μg/kg one hour after cisplatin 3.0 mg/kg IV,7.16 ± 4.26^a
same,Emetic Episodes (mean ± SD),[2]; intravenous dose 3.0 μg/kg one hour after cisplatin 3.0 mg/kg IV,4.33 ± 4.03^b
same,Emetic Episodes (mean ± SD),[2]; intravenous dose 10.0 μg/kg one hour after cisplatin 3.0 mg/kg IV,4.50 ± 5.24^b
same,Emetic Episodes (mean ± SD),[2]; intravenous dose 30.0 μg/kg one hour after cisplatin 3.0 mg/kg IV,1.33 ± 1.21^b
same,Emetic Episodes (mean ± SD),[2]; intravenous dose 100.0 μg/kg one hour after cisplatin 3.0 mg/kg IV,1.67 ± 1.83^b
same,Emetic Episodes (mean ± SD),[2]; intravenous dose 300.0 μg/kg one hour after cisplatin 3.0 mg/kg IV,3.33 ± 3.01^b
same,statistically minimally effective dose level,"[2]; intravenous, one hour after cisplatin",1.0 µg/kg
same,Emetic Episodes (mean ± SD),[3]; oral dose 0.3 μg/kg one hour before cisplatin,12.16 ± 1.94
same,Emetic Episodes (mean ± SD),[3]; oral dose 1.0 μg/kg one hour before cisplatin,12.83 ± 4.70
same,Emetic Episodes (mean ± SD),[3]; oral dose 3.0 μg/kg one hour before cisplatin,16.16 ± 5.11
same,Emetic Episodes (mean ± SD),[3]; oral dose 10.0 μg/kg one hour before cisplatin,4.00 ± 3.79^a
same,Emetic Episodes (mean ± SD),[3]; oral dose 30.0 μg/kg one hour before cisplatin,2.66 ± 1.75^a
same,Emetic Episodes (mean ± SD),[3]; oral dose 100.0 μg/kg one hour before cisplatin,0.00 ± 0.00^a
same,Emetic Episodes (mean ± SD),[3]; oral dose 300.0 μg/kg one hour before cisplatin,1.67 ± 2.04^a
same,minimally effective dose (significant reduction in episodes),"[3]; oral, one hour before cisplatin",10 µg/kg
same,longest pretreatment time before cisplatin with antiemetic activity,[4]; 0.1 mg/kg IV,10 h
same,Emetic Episodes (mean ± SD),"[4]; 0.1 mg/kg IV, 1 hr pre-cisplatin 3.0 mg/kg IV",1.33 ± 1.03^b
same,Emetic Episodes (mean ± SD),"[4]; 0.1 mg/kg IV, 2 hr pre-cisplatin 3.0 mg/kg IV",2.50 ± 2.43^b
same,Emetic Episodes (mean ± SD),"[4]; 0.1 mg/kg IV, 4 hr pre-cisplatin 3.0 mg/kg IV",0.33 ± 0.52^b
same,Emetic Episodes (mean ± SD),"[4]; 0.1 mg/kg IV, 6 hr pre-cisplatin 3.0 mg/kg IV",5.83 ± 4.40^b
same,Emetic Episodes (mean ± SD),"[4]; 0.1 mg/kg IV, 8 hr pre-cisplatin 3.0 mg/kg IV",9.50 ± 5.50^b
same,Emetic Episodes (mean ± SD),"[4]; 0.1 mg/kg IV, 10 hr pre-cisplatin 3.0 mg/kg IV",9.83 ± 4.79^b
same,Emetic Episodes (mean ± SD),"[4]; 0.1 mg/kg IV, 12 hr pre-cisplatin 3.0 mg/kg IV",13.17 ± 6.27
same,"protective effects, pretreatment time prior to cisplatin","[4]; earlier experiment, 0.03 mg/kg, compared with ondansetron 0.3 mg/kg IV (as long as seven hours)",similarly effective
same,Emetic Episodes (mean ± SD),[5]; palonosetron 100 μg/kg,1.83 ± 1.60^b
same,Emetic Episodes (mean ± SD),[5]; palonosetron 316 μg/kg,4.50 ± 6.83^b
same,Emetic Episodes (mean ± SD),[5]; palonosetron 1000 μg/kg,5.67 ± 5.32^b
same,Emetic Episodes (mean ± SD),[6]; [12],10.17 ± 2.04 ^
same,Emetic Episodes (mean ± SD),[6]; [13],6.67 ± 4.13^
same,Emetic Episodes (mean ± SD),[6]; [14],1.67 ± 1.37^d
same,Emetic Episodes (mean ± SD),[6]; [15],0.83 ± 1.17^d
same,potency relative to ondansetron,[6]; [16],at least 10 times
same,Emetic Episodes (mean ± SD),[6]; oral antiemetic 0.003 mg/kg,12.83 ± 6.68 ^
same,Emetic Episodes (mean ± SD),[6]; oral antiemetic 0.01 mg/kg,6.83 ± 4.92^d
same,Emetic Episodes (mean ± SD),[6]; oral antiemetic 0.03 mg/kg,0.33 ± 0.52^d
same,Emetic Episodes (mean ± SD),[6]; oral antiemetic 0.1 mg/kg,0.00 ± 0.00^d
same,Emetic Episodes (mean ± SD),[7]; [12],10.00 ± 0.54^c
same,Emetic Episodes (mean ± SD),[7]; [13],10.83 ± 2.04 ^
same,Emetic Episodes (mean ± SD),[7]; [14],7.17 ± 3.06^d
same,Emetic Episodes (mean ± SD),[7]; [15],5.17 ± 4.45^d
same,potency relative to ondansetron,[7]; [16],at least 10 times
same,Emetic Episodes (mean ± SD),[7]; oral antiemetic 0.003 mg/kg,5.83 ± 1.47^d
same,Emetic Episodes (mean ± SD),[7]; oral antiemetic 0.01 mg/kg,6.67 ± 3.83^d
same,Emetic Episodes (mean ± SD),[7]; oral antiemetic 0.03 mg/kg,3.33 ± 4.55^d
same,Emetic Episodes (mean ± SD),[7]; oral antiemetic 0.1 mg/kg,1.00 ± 1.67^d
same,Emetic Episodes (mean ± SD),[8]; [12],7.67 ± 5.05
same,Emetic Episodes (mean ± SD),[8]; [13],6.00 ± 4.29
same,Emetic Episodes (mean ± SD),[8]; [14],3.00 ± 3.52^d
same,Emetic Episodes (mean ± SD),[8]; [15],0.17 ± 0.41^d
same,potency relative to ondansetron,[8]; [16],at least 10 times
same,Emetic Episodes (mean ± SD),[8]; oral antiemetic 0.003 mg/kg,4.50 ± 3.51^c
same,Emetic Episodes (mean ± SD),[8]; oral antiemetic 0.01 mg/kg,2.83 ± 1.94^d
same,Emetic Episodes (mean ± SD),[8]; oral antiemetic 0.03 mg/kg,0.33 ± 0.82^d
same,Emetic Episodes (mean ± SD),[8]; oral antiemetic 0.1 mg/kg,0.00 ± 0.00^d
same,half-life,[9],~40 h
same,adverse events either mild or moderate,"[10]; both, human",83.9%
same,adverse events not attributed to study medication,"[10]; both, human",86.0%
same,adverse events related to study medication: abdominal pain,"[10]; both, human",2.5%
same,adverse events related to study medication: constipation,"[10]; both, human",8.7%
same,adverse events related to study medication: dizziness,"[10]; both, human",2.5%
same,adverse events related to study medication: headache,"[10]; both, human",19.3%
same,serious drug-related events,[10],No serious drug-related events were reported
same,% CR(Day 5),[11]; [17],17%
same,% CR(24 hr),[11]; [17],24%
same,% CR(Day 5),[11]; [18],17%
same,% CR(24 hr),[11]; [18],46%
same,% CR(Day 5),[11]; [19],32%
same,% CR(24 hr),[11]; [19],40%
same,% CR(Day 5),[11]; [20],33%
same,% CR(24 hr),[11]; [20],50* %
same,% CR(Day 5),[11]; [21],20%
same,% CR(24 hr),[11]; [21],46%

# — patent US20110178118A1, “PALONOSETRON FOR THE TREATMENT OF CHEMOTHERAPY INDUCED EMESES” (priority 2002, published 2011)
